Data as given in patent publication US20240246946A1, “MODULATORS OF TREX1” (Constellation Pharmaceuticals, Inc., priority 2021, published 2024).

Tests used:
full length human TREX1 = target: T1, full length human TREX1 (Homo sapiens, UniProt Q9NSU2); assay: hTREX1 Biochemical Assay (fluorescence, dsDNA substrate degradation); conditions: biochemical, read-out: hTREX1 IC50
T1 construct: N-terminally His-Tev tagged full length human TREX1; made in house; host or cells: E. coli
T1 sequence (Q9NSU2 1-314): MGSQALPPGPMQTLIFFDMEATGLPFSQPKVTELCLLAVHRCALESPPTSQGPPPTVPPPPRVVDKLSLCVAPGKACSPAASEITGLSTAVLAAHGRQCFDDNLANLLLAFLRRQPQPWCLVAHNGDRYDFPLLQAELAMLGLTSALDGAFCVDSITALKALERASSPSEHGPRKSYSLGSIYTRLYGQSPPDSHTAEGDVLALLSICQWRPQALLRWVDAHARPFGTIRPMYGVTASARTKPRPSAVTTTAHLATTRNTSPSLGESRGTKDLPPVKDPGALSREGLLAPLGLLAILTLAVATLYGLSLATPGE
Summary of the method: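 Fluorescence rises as enzyme degrades a quenched TEX615-labelled dsDNA substrate (60 nM) in 50 mM Tris, 150 mM NaCl, 5 mM MgCl2, pH 7.4. Full-length His-Tev-tagged human TREX1, 4 pM, sits with compound 4 hours at 25° C before substrate; reaction 18 hours, stopped with EDTA.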

[1] = target: T2, human TREX2 (residues M44-A279) (Homo sapiens, UniProt Q9BQ50); assay: hTREX2 Biochemical Assay (fluorescence, dsDNA substrate degradation); conditions: biochemical selectivity for hTREX1 vs hTREX2
T2 construct: human TREX2 (residues M44-A279, expressed in E. coli); made in house; host or cells: E. coli
T2 sequence (Q9BQ50 44-279 isoform Q9BQ50-1): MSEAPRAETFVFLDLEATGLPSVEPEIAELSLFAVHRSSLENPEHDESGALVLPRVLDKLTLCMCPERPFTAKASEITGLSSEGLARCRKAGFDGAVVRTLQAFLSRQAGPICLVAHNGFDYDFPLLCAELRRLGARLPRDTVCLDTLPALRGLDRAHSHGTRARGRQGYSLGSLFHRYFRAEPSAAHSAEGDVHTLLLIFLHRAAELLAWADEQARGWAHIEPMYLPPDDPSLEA
Summary of the method: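 Fluorogenic dsDNA degradation read at 615 nm (570 nm excitation) after EDTA quench. Final 60 nM substrate, 50 pM His-Tev-tagged enzyme, 5 mM MgCl2, pH 7.4, 1.0% DMSO; 4 h compound–enzyme preincubation then 18 h reaction, both 25 °C; 10-point titration.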

hTREX1 = target: T3, hTREX1 (Homo sapiens, UniProt Q9NSU2); assay: hTREX1 HCT116 Cell Assay (HCT116 dual cells, Lucia luciferase reporter of Type I interferon induction); format: cell-based; conditions: TREX1i 4 h before pBR322/BstNI transfection, read after 48 h
T3 construct: host or cells: HCT116 dual cells
T3 sequence (Q9NSU2 1-314): T1 sequence (Q9NSU2 1-314)
Summary of the method: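 Type I interferon induction read as secreted Lucia luciferase 48 h after transfecting pBR322/BstNI digest (1 ug/mL, 100 ng/well) into HCT116 dual reporter cells. Compound added 4 h before transfection at up to 0.1% DMSO; cells in DMEM/10% FBS/25 mM HEPES at 37 °C.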

full length mouse TREX1 = target: T4, full length mouse TREX1 (Mus musculus, UniProt Q91XB0); assay: mTREX1 Biochemical Assay (fluorescence, dsDNA substrate degradation); conditions: biochemical, read-out: mTREX1 IC50
T4 construct: N-terminally His-Tev tagged full length mouse TREX1; made in house; host or cells: E. coli
T4 sequence (Q91XB0 1-314): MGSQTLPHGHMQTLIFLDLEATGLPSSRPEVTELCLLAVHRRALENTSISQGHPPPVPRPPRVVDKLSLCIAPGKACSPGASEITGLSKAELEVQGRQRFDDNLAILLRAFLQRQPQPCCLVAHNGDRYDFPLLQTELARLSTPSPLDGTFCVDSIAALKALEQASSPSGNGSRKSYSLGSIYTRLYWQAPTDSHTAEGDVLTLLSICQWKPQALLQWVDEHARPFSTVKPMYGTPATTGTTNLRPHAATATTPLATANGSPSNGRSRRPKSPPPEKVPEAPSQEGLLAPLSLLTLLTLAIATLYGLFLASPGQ
Summary of the method: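 Reaction run 18 h at 25° C. with 60 nM TEX615/quencher-labelled dsDNA and 6 pM mouse TREX1 in Tris buffer (pH 7.4, 5 mM MgCl2, 1.0% DMSO), enzyme having sat 4 h with compound across 10 concentrations. EDTA quench; substrate degradation measured as fluorescence increase.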

| IC50 (full length human TREX1) | hTREX1 vs hTREX2 selectivity [1] | IC50 (hTREX1) | IC50 (full length mouse TREX1) | SMILES |
| --- | --- | --- | --- | --- |
| 1 to 10 nM | A (A = <25 fold selective for hTREX1) | > 100 nM | > 10 nM | COCCn1ncc(C(c2cc(F)ccc2Cl)C(C)c2nc(C(=O)Nc3cnoc3)c(O)c(=O)n2C)c1C (single isomer, unassigned) [Example 108 D1E1] |
| > 10 nM | A (A = <25 fold selective for hTREX1) | > 100 nM | > 10 nM | COCCn1cc(C(c2cc(F)ccc2C#N)C(C)c2nc(C(=O)Nc3cnoc3)c(O)c(=O)n2C)c(C)n1 (single isomer, unassigned) [Example 103 D1E1] |
| > 10 nM | A (A = <25 fold selective for hTREX1) | > 100 nM | > 10 nM | Cc1cnc(C(c2ccccc2Cl)C(C)c2nc(C(=O)Nc3cnoc3)c(O)c(=O)n2C)cn1 (single isomer, unassigned) [Example 116 D1E1] |
| 1 to 10 nM | C (C = >50 fold selective for hTREX1) | > 100 nM | > 10 nM | Cc1cnc(C)c(C(c2cc(F)ccc2C#N)C(C)c2nc(C(=O)Nc3cnoc3)c(O)c(=O)n2C)n1 (single isomer, unassigned) [Example 119 D2E1] |

Further lines, the molecule ahead of its results:

| SMILES | IC50 (full length human TREX1) | hTREX1 vs hTREX2 selectivity [1] | IC50 (hTREX1) | IC50 (full length mouse TREX1) |
| --- | --- | --- | --- | --- |
| CC(c1nc(C(=O)Nc2cnoc2)c(O)c(=O)n1C)C(c1ccccc1C#N)c1cn(C)nc1C#N (single isomer, unassigned) [Example 10 D2E1] | < 1 nM | C (C = >50 fold selective for hTREX1) | < 10 nM | 1 to 10 nM |
| CCn1cc(C(c2ccccc2C#N)C(C)c2nc(C(=O)Nc3cnoc3)c(O)c(=O)n2C)cn1 (single isomer, unassigned) [Example 13 D2E1] | 1 to 10 nM | B (B = 25 to 50-fold selective for hTREX1) | > 100 nM | > 10 nM |
| Cc1cnc(C)c(C(c2ccccc2C#N)C(C)c2nc(C(=O)Nc3cnoc3)c(O)c(=O)n2C)n1 (single isomer, unassigned) [Example 82 D2E1] | 1 to 10 nM | C (C = >50 fold selective for hTREX1) | > 100 nM | > 10 nM |
| CCn1cc(C(c2ccccc2Cl)C(C)c2nc(C(=O)Nc3cnoc3)c(O)c(=O)n2C)cn1 (single isomer, unassigned) [Example 85 D1E1] | < 1 nM | B (B = 25 to 50-fold selective for hTREX1) | 10 to 100 nM | < 1 nM |
| CC(c1nc(C(=O)Nc2cnoc2)c(O)c(=O)n1C)C(c1cnn(C2COC2)c1)c1ccccc1C#N (single isomer, unassigned) [Example 106 D1E1] | < 1 nM | B (B = 25 to 50-fold selective for hTREX1) | 10 to 100 nM | 1 to 10 nM |
| CCn1cc(C(c2ccccc2Cl)C(C)c2nc(C(=O)Nc3cnoc3)c(O)c(=O)n2C)cn1 (single isomer, unassigned) [Example 85 D2E1] | > 10 nM | A (A = <25 fold selective for hTREX1) | > 100 nM | > 10 nM |
| CC(c1nc(C(=O)Nc2cnoc2)c(O)c(=O)n1C)C(c1cnn(C)c1)c1ccc(C(F)(F)F)cc1C#N (single isomer, unassigned) [Example 30 D1E1] | < 1 nM | C (C = >50 fold selective for hTREX1) | < 10 nM | < 1 nM |
| CC(c1nc(C(=O)Nc2cnoc2)c(O)c(=O)n1C)C(c1cnn(CC(C)(C)C#N)c1)c1cc(F)ccc1Cl (single isomer, unassigned) [Example 99 D1E1] | 1 to 10 nM | A (A = <25 fold selective for hTREX1) | > 100 nM | > 10 nM |
